Data reported in PMC4039224, “Cadherin-11 in poor prognosis malignancies and rheumatoid arthritis: common target, common therapies” (Oncotarget, 2013).

Tests used:
[1] = molecular target: T1, mouse CDH11 (EC1-2 domain) (Mus musculus, UniProt P55288); test: SPR competition of homophilic CDH11 binding, Biacore T200 CM5; conditions: 6.25-200 uM compound co-injected with 2.5 uM EC1-2; pH 7.4 HEPES, 150 mM NaCl, 3 mM CaCl2, 1% DMSO; inhibits homodimerization, W-binding pocket (modelled); salt form ambiguous (b61 vs Table 1)
T1 construct: extracellular domains EC1-EC2 only; wild-type soluble EC1-2, and C-terminally cysteine-tagged EC1-2 immobilised on the SPR chip; forms homodimer
T1 sequence (P55288 54-268 limits assumed): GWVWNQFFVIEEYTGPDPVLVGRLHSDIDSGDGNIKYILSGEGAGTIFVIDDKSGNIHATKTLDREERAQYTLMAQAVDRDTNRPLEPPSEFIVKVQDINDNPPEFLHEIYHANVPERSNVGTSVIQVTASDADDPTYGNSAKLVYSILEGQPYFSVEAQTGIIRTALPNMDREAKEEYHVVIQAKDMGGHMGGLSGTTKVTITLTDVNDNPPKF

[2] = molecular target: T1, mouse CDH11 (EC1-2 domain); test: native gel, dimer fraction; type: binding; conditions: 1:1 molar ratio with purified CDH11 EC1-2, compound in DMSO; inhibits homodimerization; species of the gel protein not stated again
[3] = molecular target: wild type mouse cadherin-11 (CDH11) EC1-2 (mouse); test: native gel or EMSA; purified CDH11 EC1-2 without and with celecoxib (in DMSO, 1:1 molar ratio); monomer and dimer fractions

Molecule: Oc1ccc(-c2cccnc2-c2ccccc2)cc1 [Sd-133, 4-(2-phenyl-3-pyridyl)phenol]
- SPR competition of homophilic CDH11 binding, Biacore T200 CM5 [1]: Sd-133 competed with CDH11 (ligand) in binding to immobilized CDH11 protein

Molecule: Cc1ccc(-c2cc(C(F)(F)F)nn2-c2ccc(S(N)(=O)=O)cc2)cc1 [celecoxib, 4-[5-(4-methylphenyl)-3-(trifluoromethyl)pyrazol-1-yl]benzenesulfonamide]
- native gel, dimer fraction [2]: Note that celecoxib reduces the dimer fraction

Molecule: wild type mouse cadherin-11 (CDH11) EC1-2 (domain or fragment)
- stoichiometry N [3]: 2
